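Growth conditions: 96-well plates. Treatment: test compound, 48 hours, 5 concentrations. Analysis: linear interpolation between bracketing concentrations; unreached endpoints set to highest concentration. Here, GI50 denotes the concentration required for 50% inhibition of growth. Definition used: TGI = concentration required for complete inhibition of growth.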
Columns and labels:
Experiment in all cases: inhibition of tumour cell growth, NCI panel, 48 h
[1] = system: 786-0 renal
[2] = system: A498 renal
[3] = system: A549 NSCLC
[4] = system: ACHN renal
[5] = system: BT-549 breast
[6] = system: CAKI-1 renal
[7] = system: CCRF-CEM leukemia
[8] = system: COLO 205 colon
[9] = system: DU-145 prostate
[10] = system: EKVX NSCLC
[11] = system: HCC-2998 colon
[12] = system: HCT-116 colon
[13] = system: HCT-15 colon
[14] = system: HL-60(TB) leukemia
[15] = system: HOP-62 NSCLC
[16] = system: HOP-92 NSCLC
[17] = system: HS 578T breast
[18] = system: HT29 colon
[19] = system: IGROV1 ovarian
[20] = system: K-562 leukemia
[21] = system: KM12 colon
[22] = system: LOX IMVI melanoma
[23] = system: M14 melanoma
[24] = system: MALME-3M melanoma
[25] = system: MCF7 breast
[26] = system: MDA-MB-231 breast
[27] = system: MDA-MB-435
[28] = system: MOLT-4 leukemia
[29] = system: NCI-H226 lung
[30] = system: NCI-H23 lung
[31] = system: NCI-H460 lung
[32] = system: NCI-H522 lung
[33] = system: NCI/ADR-RES ovarian
[34] = system: OVCAR-3 ovarian
[35] = system: OVCAR-4 ovarian
[36] = system: OVCAR-5 ovarian
[37] = system: OVCAR-8 ovarian
[38] = system: PC-3 prostate
[39] = system: RPMI-8226 leukemia
[40] = system: RXF 393 renal
[41] = system: SF-268 CNS
[42] = system: SF-295 CNS
[43] = system: SF-539 CNS
[44] = system: SK-MEL-2 melanoma
[45] = system: SK-MEL-28 melanoma
[46] = system: SK-MEL-5 melanoma
[47] = system: SK-OV-3 ovarian
[48] = system: SN12C renal
[49] = system: SNB-19 CNS
[50] = system: SNB-75 CNS
[51] = system: SR leukemia
[52] = system: SW-620 colon
[53] = system: T-47D breast
[54] = system: TK-10 renal
[55] = system: U251 CNS
[56] = system: UACC-257 melanoma
[57] = system: UACC-62 melanoma
[58] = system: UO-31 renal

SMILES: O=c1[nH]ccc2nc(N3CCC(O)CC3)nc(Nc3ccc(N4CCOCC4)cc3)c12
- GI50 [1]: > 22.6 µM
- TGI [1]: > 100 µM
- GI50 [2]: 1.49 µM
- TGI [2]: 9.77 µM
- GI50 [3]: 3.9 µM
- TGI [3]: > 100 µM
- GI50 [4]: 0.797 µM
- TGI [4]: > 100 µM
- GI50 [5]: 2.31 µM
- TGI [5]: > 46.5 µM
- GI50 [6]: 0.367 µM
- TGI [6]: > 100 µM
- GI50 [7]: 28.3 µM
- TGI [7]: > 100 µM
- GI50 [8]: 1.71 µM
- TGI [8]: 5.05 µM
- GI50 [9]: 2.95 µM
- TGI [9]: > 100 µM
- GI50 [10]: > 38.3 µM
- TGI [10]: > 100 µM
- TGI [11]: > 81.2 µM
- GI50 [12]: 0.736 µM
- TGI [12]: > 100 µM
- GI50 [13]: 1.24 µM
- TGI [13]: > 100 µM
- GI50 [14]: > 100 µM
- TGI [14]: > 100 µM
- GI50 [15]: 5.32 µM
- TGI [15]: > 100 µM
- GI50 [16]: 0.566 µM
- TGI [16]: 5.02 µM
- GI50 [17]: 2.01 µM
- TGI [17]: 9.03 µM
- GI50 [18]: 1.06 µM
- TGI [18]: > 100 µM
- GI50 [19]: 0.584 µM
- TGI [19]: > 100 µM
- GI50 [20]: > 100 µM
- TGI [20]: > 100 µM
- GI50 [21]: 0.055 µM
- TGI [21]: > 100 µM
- GI50 [22]: 1.38 µM
- TGI [22]: > 100 µM
- GI50 [23]: 0.351 µM
- TGI [23]: > 100 µM
- GI50 [24]: 1.61 µM
- TGI [24]: > 63 µM
- GI50 [25]: 4.45 µM
- TGI [25]: > 100 µM
- GI50 [26]: 7.41 µM
- TGI [26]: > 100 µM
- GI50 [27]: 0.744 µM
- TGI [27]: > 100 µM
- GI50 [28]: > 83.8 µM
- TGI [28]: > 100 µM
- GI50 [29]: > 100 µM
- TGI [29]: > 100 µM
- GI50 [30]: 8.71 µM
- TGI [30]: > 100 µM
- GI50 [31]: 2.38 µM
- TGI [31]: > 100 µM
- GI50 [32]: > 100 µM
- TGI [32]: > 100 µM
- GI50 [33]: > 100 µM
- TGI [33]: > 100 µM
- GI50 [34]: 29.1 µM
- TGI [34]: > 100 µM
- GI50 [35]: > 100 µM
- TGI [35]: > 100 µM
- GI50 [36]: 3.38 µM
- TGI [36]: > 100 µM
- GI50 [37]: > 100 µM
- TGI [37]: > 100 µM
- GI50 [38]: > 100 µM
- TGI [38]: > 100 µM
- GI50 [39]: > 100 µM
- TGI [39]: > 100 µM
- GI50 [40]: 1.74 µM
- TGI [40]: 7.5 µM
- GI50 [41]: 5.94 µM
- TGI [41]: > 100 µM
- GI50 [42]: > 100 µM
- TGI [42]: > 100 µM
- GI50 [43]: 2.85 µM
- TGI [43]: 11.2 µM
- GI50 [44]: 2.27 µM
- TGI [44]: > 100 µM
- GI50 [45]: > 100 µM
- TGI [45]: > 100 µM
- GI50 [46]: 3.69 µM
- TGI [46]: > 50.8 µM
- GI50 [47]: 0.59 µM
- TGI [47]: > 100 µM
- GI50 [48]: 2.55 µM
- TGI [48]: > 100 µM
- GI50 [49]: > 78.8 µM
- TGI [49]: > 100 µM
- GI50 [50]: 2.39 µM
- TGI [50]: 12.1 µM
- GI50 [51]: 3.14 µM
- TGI [51]: > 100 µM
- GI50 [52]: 1.75 µM
- TGI [52]: > 100 µM
- GI50 [53]: > 100 µM
- TGI [53]: > 100 µM
- GI50 [54]: > 26.3 µM
- TGI [54]: > 100 µM
- GI50 [55]: > 81 µM
- TGI [55]: > 100 µM
- GI50 [56]: > 100 µM
- TGI [56]: > 100 µM
- GI50 [57]: 20.5 µM
- TGI [57]: > 100 µM
- GI50 [58]: 0.374 µM
- TGI [58]: > 100 µM
